Reference: patent US20210255193A1, “LYSINE REACTIVE PROBES AND USES THEREOF” (The Scripps Research Institute, priority 2017, published 2021)
Each block holds one compound with its values, some of them ahead of it.

Legend:
Assay in all cases: competitive isoTOP-ABPP
Assay type in all cases: binding
[1] = molecular target: T1, PLIN3 Perilipin-3 (Homo sapiens, UniProt O60664); design: key to isoTOP-ABPP reactivity ratio at lysine O60664_K257 / isoTOP-ABPP reactivity ratio at lysine O60664_K140: R = MS1 peak area ratio, DMSO (heavy) / compound-treated (light); capped at 20; details: for isoTOP-ABPP reactivity ratio at lysine O60664_K140 / isoTOP-ABPP reactivity ratio at lysine O60664_K257: 231 sol; for isoTOP-ABPP ratio, lysine O60664_K257: 50 uM_231_sol_in vitro
T1 construct: isoTOP-ABPP experiments performed in cell lysates (in vitro); endogenous in cells; host or cells: MDA-MB-231 soluble lysate
T1 sequence (O60664 1-434): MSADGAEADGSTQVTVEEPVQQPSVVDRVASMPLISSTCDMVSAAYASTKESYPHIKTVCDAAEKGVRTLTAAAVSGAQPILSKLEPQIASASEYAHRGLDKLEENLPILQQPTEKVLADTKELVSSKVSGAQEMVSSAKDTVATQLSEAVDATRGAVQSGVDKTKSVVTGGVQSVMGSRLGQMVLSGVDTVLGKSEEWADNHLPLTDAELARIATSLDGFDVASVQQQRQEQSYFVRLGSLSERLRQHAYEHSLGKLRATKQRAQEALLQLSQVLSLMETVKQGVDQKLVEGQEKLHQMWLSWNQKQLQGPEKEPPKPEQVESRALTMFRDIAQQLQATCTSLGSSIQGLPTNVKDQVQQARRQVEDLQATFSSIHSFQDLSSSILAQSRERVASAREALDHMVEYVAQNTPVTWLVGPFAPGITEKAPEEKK
Protocol: (§1) In vitro covalent fragment treatment for isoTOP-ABPP. All compounds were made up as solutions in DMSO (100×) and were used at a final concentration of 50 μM for activated esters and 100 μM for guanidinylating agents. For each profiling sample, 0.5 ml of lysate was treated with 5 μl of the 100× compound stock solution or 5 μl of DMSO. Samples were treated with activated esters for
(§2) STP-alkyne labeling and click chemistry. For concentration-dependent reactivity measurements by isoTOP-ABPP, 0.5 ml proteome aliquots were treated at ambient temperature with 1 mM STP-alkyne 1 (5 μl of 100 mM stock in DMSO) and 0.1 mM STP alkyne 1 (5 μl of 10 mM stock in DMSO), respectively. For competitive isoTOP-ABPP, after in vitro fragment treatment (detailed above), the samples were labeled for 1 h at ambient temperature with 0.1 mM STP-alkyne 1 (5 μl of 10 mM stock in DMSO). Samples were conjugated by copper-mediated azide-alkyne cycloaddition (CuAAC) to either the light (1 mM STP-alkyne or fragment treated) or heavy (0.1 mM STP-alkyne or DMSO treated) TEV tags (10 μl of 5 mM stocks in DMSO, final concentration=100 μM) using tris(2-carboxyethyl)phosphine hydrochloride
(§3) R value calculation and processing. The ratios of light and heavy MS1 peaks for each unique peptide were quantified with a CIMAGE software using default parameters (3 MS1 acquisitions per peak and signal to noise threshold set to 2.5). For reactivity measurements by isoTOP-ABPP, the R value was calculated from the ratio of MS1 peak areas, comparing the 1 mM STP alkyne sample (light TEV tag) with the 0.1 mM STP alkyne sample (heavy TEV tag). For competitive isoTOP-ABPP, the R value was calculated from the ratio of MS1 peak areas, comparing the DMSO treated sample (heavy TEV tag) with the compound treated sample (light TEV tag). […] Ratios for unique peptide entries are calculated for each experiment; overlapping peptides with the same modified lysine (for example, different charge states, MudPIT chromatographic steps or tryptic termini) are grouped together and the median ratio is reported as the final ratio (R). The peptide ratios reported by CIMAGE were further filtered to ensure the removal or correction of low-quality ratios in each individual data set. The quality filters applied were the following: removal of half tryptic peptides; for ratios with high standard deviations from the median (90% of the median or above) the lowest ratio was taken instead of the median; removal of peptides with R=20 and only a single MS2 event triggered during the elution of the parent ion; manual annotation of all the peptides with ratios of 20, removing any peptides with low quality elution profiles that remained after the previous curation steps (only done for competitive isoTOP-ABPP).
(§4) Cross-data processing for fragment screening. For compound treated samples, biological replicates of the same condition were averaged, if the standard deviation was below 60% of the mean; otherwise, for lysines with at least one R value <4 for a particular compound, the lowest value of the ratio set was taken. For lysines, where all R values for a particular compound were ≥4, the average was reported. For peptides containing several possible modified lysines, the lysine with the highest number of quantification events was used for analysis and the remaining, redundant peptides were reported as alternative modification sites. Peptides included in the aggregate dataset (those used for further bioinformatics and statistical analyses) were required to have been quantified in 2 experiments for competitive isoTOP-ABPP. Lysines were categorized as liganded, if they had at least one ratio R≥4 (hit fragments). For liganded lysines with R=20 for all liganding events, lysines were required to have been quantified with R=20 in two separate experiments and were further required to have been quantified with R<20 in one additional experiment.

[2] = molecular target: T2, GSTT2B Glutathione S-transferase theta-2B (Homo sapiens, UniProt P0CG30); details: for isoTOP-ABPP reactivity ratio at lysine P0CG30_K53: 231 sol
T2 construct: isoTOP-ABPP experiments performed in cell lysates (in vitro); endogenous in cells; host or cells: MDA-MB-231 soluble lysate
T2 sequence (P0CG30 1-244): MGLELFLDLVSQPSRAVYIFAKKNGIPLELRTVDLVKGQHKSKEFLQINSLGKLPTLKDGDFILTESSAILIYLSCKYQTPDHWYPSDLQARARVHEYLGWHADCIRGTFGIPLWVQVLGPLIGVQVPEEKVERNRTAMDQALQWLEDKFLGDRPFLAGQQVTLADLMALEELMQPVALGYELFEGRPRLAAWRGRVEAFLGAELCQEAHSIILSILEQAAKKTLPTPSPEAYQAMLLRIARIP
Protocol: as §1, §2, §3, §4

[3] = molecular target: T3, MRPS24 28S ribosomal protein S24, mitochondrial (Homo sapiens, UniProt Q96EL2); details: for isoTOP-ABPP reactivity ratio at lysine Q96EL2_K94: 231 sol
T3 construct: isoTOP-ABPP experiments performed in cell lysates (in vitro); endogenous in cells; host or cells: soluble proteome of human cancer cell lines (MDA-MB-231; Ramos and Jurkat also prepared)
Protocol: as §1, §2, §3, §4

[4] = molecular target: T4, CPOX Coproporphyrinogen-III oxidase, mitochondrial (Homo sapiens, UniProt P36551); design: key to isoTOP-ABPP reactivity ratio at lysine P36551_K404: R = MS1 peak area ratio, DMSO (heavy) / compound-treated (light); details: for isoTOP-ABPP reactivity ratio at lysine P36551_K404: 231 sol
T4 construct: isoTOP-ABPP experiments performed in cell lysates (in vitro); endogenous in cells; host or cells: soluble proteome of human cancer cell lines (MDA-MB-231; Ramos and Jurkat also prepared)
T4 sequence (P36551 111-454): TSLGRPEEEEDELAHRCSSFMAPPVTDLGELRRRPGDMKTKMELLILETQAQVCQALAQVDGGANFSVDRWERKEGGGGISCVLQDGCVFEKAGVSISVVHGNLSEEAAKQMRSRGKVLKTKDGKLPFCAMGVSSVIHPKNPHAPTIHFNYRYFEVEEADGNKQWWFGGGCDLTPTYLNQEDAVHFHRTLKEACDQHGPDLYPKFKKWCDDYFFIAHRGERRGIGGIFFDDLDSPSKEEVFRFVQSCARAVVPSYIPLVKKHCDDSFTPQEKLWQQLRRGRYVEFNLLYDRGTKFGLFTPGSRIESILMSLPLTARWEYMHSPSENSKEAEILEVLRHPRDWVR
Protocol: as §1, §2, §3, §4

Compound: O=C(CCc1cn(-c2ccccc2)nc1-c1ccccc1)Oc1ccc([N+](=O)[O-])cc1[N+](=O)[O-] [fragment 29, 2,4-Dinitrophenyl 3-(1,3-diphenyl-1H-pyrazol-4-yl)propanoate]
isoTOP-ABPP reactivity ratio at lysine O60664_K140 ([1]; 50 uM, in vitro): 2.1
isoTOP-ABPP reactivity ratio at lysine O60664_K257 ([1]; 50 uM, in vitro): 3.5
isoTOP-ABPP reactivity ratio at lysine P0CG30_K53 ([2]; 50 uM, in vitro): 0.7
isoTOP-ABPP reactivity ratio at lysine Q96EL2_K94 ([3]; 50 uM, in vitro): 2.2
isoTOP-ABPP reactivity ratio at lysine P36551_K404 ([4]; 50 uM, in vitro): 18.1

Compound: O=C(Oc1c(F)c(F)c(F)c(F)c1F)C1CCN(C(=O)OCc2ccccc2)CC1 [fragment 24, 1-Benzyl 4-(pentafluorophenyl) piperidine-1,4-dicarboxylate]
isoTOP-ABPP reactivity ratio at lysine O60664_K140 ([1]; 50 uM, in vitro): 1.7
isoTOP-ABPP reactivity ratio at lysine P0CG30_K53 ([2]; 50 uM, in vitro): 1.0
isoTOP-ABPP reactivity ratio at lysine Q96EL2_K94 ([3]; 50 uM, in vitro): 1.5
isoTOP-ABPP reactivity ratio at lysine P36551_K404 ([4]; 50 uM, in vitro): 1.2

Compound: N#Cc1ccc(C(=O)Oc2ccc([N+](=O)[O-])cc2[N+](=O)[O-])cc1 [fragment 44, 2,4-Dinitrophenyl 4-cyanobenzoate]
isoTOP-ABPP ratio, lysine O60664_K257 [1]: 1.9
isoTOP-ABPP ratio, lysine P0CG30_K53 ([2]; 50 uM_231_sol_in vitro): 0.6
isoTOP-ABPP ratio, lysine Q96EL2_K94 ([3]; 50 uM_231_sol_in vitro): 1.1
isoTOP-ABPP ratio, lysine P36551_K404 ([4]; 50 uM_231_sol_in vitro): 1.0

Compound: O=C(CCc1coc2cc(F)ccc2c1=O)Oc1ccc([N+](=O)[O-])cc1[N+](=O)[O-] [fragment 36, 2,4-Dinitrophenyl 3-(7-fluoro-4-oxo-4H-chromen-3-yl)propanoate]
isoTOP-ABPP ratio (R) at liganded lysine O60664_K140 ([1]; 50 uM, in vitro, sol, 231): 1.5
isoTOP-ABPP ratio (R) at liganded lysine O60664_K257 ([1]; 50 uM, in vitro, sol, 231): 3.9
isoTOP-ABPP ratio (R) at liganded lysine P0CG30_K53 ([2]; 50 uM, in vitro, sol, 231): 0.5
isoTOP-ABPP ratio (R) at liganded lysine Q96EL2_K94 ([3]; 50 uM, in vitro, sol, 231): 2.8
isoTOP-ABPP ratio (R) at liganded lysine P36551_K404 ([4]; 50 uM, in vitro, sol, 231): 1.0

More lines, now with the values ahead:

isoTOP-ABPP ratio, lysine O60664_K257 [1]: 1.0
isoTOP-ABPP ratio, lysine P0CG30_K53 ([2]; 50 uM_231_sol_in vitro): 0.7
isoTOP-ABPP ratio, lysine Q96EL2_K94 ([3]; 50 uM_231_sol_in vitro): 0.9
isoTOP-ABPP ratio, lysine P36551_K404 ([4]; 50 uM_231_sol_in vitro): 0.9
Compound: NC(=O)c1cc(C(F)(F)F)cc(C(F)(F)F)c1 [fragment 51, reference compound]

isoTOP-ABPP reactivity ratio at lysine O60664_K140 ([1]; 50 uM, in vitro): 1.2
isoTOP-ABPP reactivity ratio at lysine O60664_K257 ([1]; 50 uM, in vitro): 4.1
isoTOP-ABPP reactivity ratio at lysine P0CG30_K53 ([2]; 50 uM, in vitro): 1.3
isoTOP-ABPP reactivity ratio at lysine Q96EL2_K94 ([3]; 50 uM, in vitro): 2.7
isoTOP-ABPP reactivity ratio at lysine P36551_K404 ([4]; 50 uM, in vitro): 1.1
Compound: O=C(CCc1coc2cc(F)ccc2c1=O)Oc1c(F)c(F)c(F)c(F)c1F [fragment 26, Pentafluorophenyl 3-(7-fluoro-4-oxo-4H-chromen-3-yl)propanoate]

isoTOP-ABPP ratio, lysine O60664_K140 ([1]; 100 uM_231_sol_in vitro): 1.8
isoTOP-ABPP ratio, lysine P0CG30_K53 ([2]; 100 uM_231_sol_in vitro): 1.4
isoTOP-ABPP ratio, lysine Q96EL2_K94 ([3]; 100 uM_231_sol_in vitro): 2.2
isoTOP-ABPP ratio, lysine P36551_K404 ([4]; 100 uM_231_sol_in vitro): 1.8
Compound: CC(C)(C)OC(=O)N=C(NC(=O)OC(C)(C)C)n1cccn1 [fragment 50, reference compound]
